For this assay, the target named is T1, Human α-thrombin (Homo sapiens, UniProt P00734).
T1 construct: Human α-thrombin; purchased Sigma Chemical Co. or Hematologic Technologies
The experiment in a line: Test A: Determination of Thrombin Inhibition with a Chromogenic, Robotic Assay. Format: biochemical. To be noted: chromogenic substrate S-2366 0.30 mmol/L, α-thrombin 0.020 NIHU/mL, 40 minutes incubation at 37° C. The procedure:
Determination of Thrombin Inhibition with a Chromogenic, Robotic Assay
The thrombin inhibitor potency is measured with a chromogenic substrate method, in a Plato 3300 robotic microplate processor (Rosys AG, CH-8634 Hombrechtikon, Switzerland), using 96-well, half volume microtitre plates (Costar, Cambridge, Mass., USA; Cat No 3690). Stock solutions of test substance in DMSO (72 μL), 0.1-1 mmol/L, are diluted serially 1:3 (24+48 μL) with DMSO to obtain ten different concentrations, which are analyzed as samples in the assay. 2 μL of test sample is diluted with 124 μL assay buffer, 12 μL of chromogenic substrate solution (S-2366, Chromogenix, Mölndal, Sweden) in assay buffer and finally 12 μL of α-thrombin solution (Human α-thrombin, Sigma Chemical Co. or Hematologic Technologies) in assay buffer, are added, and the samples mixed. The final assay concentrations are: test substance […], S-2366 0.30 mmol/L, α-thrombin 0.020 NIHU/mL The linear absorbance increment during 40 minutes incubation at 37° C. is used for calculation of percentage inhibition for the test samples, as compared to blanks without inhibitor. The IC50 value, corresponding to the inhibitor concentration which causes 50% inhibition of the thrombin activity, is calculated from a log concentration vs. % inhibition curve.

Here are results for 22 compounds from patent US20110130432A1, “Heterocyclic Carboxamides For Use As Thrombin Inhibitors” (ASTRAZENECA AB, priority 2008, published 2011).

In general, IC50 refers to the concentration that gives 50% inhibition. Low readings indicate inhibition by little substance, high ones a need for much substance.

For the compound `O=C(NCc1cc(Cl)ccc1-n1cnnn1)[C@@H]1CC=NN1C(=O)C(O)c1cccc(F)c1F` (stereo partly drawn) [Example 2, (5S)—N-[5-Chloro-2-(1H-tetrazol-1-yl)benzyl]-1-[(2,3-difluorophenyl)(hydroxy)acetyl]-4,5-dihydro-1H-pyrazole-5-carboxamide], the IC50 is 34 nM.

`O=C(NCc1cc(Cl)ccc1-n1cnnn1)[C@@H]1CC=NN1C(=O)C(O)c1cc(F)cc(F)c1` (stereo partly drawn) [Example 4, (5S)—N-[5-Chloro-2-(1H-tetrazol-1-yl)benzyl]-1-[(3,5-difluorophenyl)(hydroxy)acetyl]-4,5-dihydro-1H-pyrazole-5-carboxamide] returned an IC50 of 18 nM.

Compound `O=C(NCc1cc(Cl)ccc1-n1cnnn1)[C@@H]1CC=NN1C(=O)[C@H](O)C1CCCC1` [Example 5, (5S)—N-[5-Chloro-2-(1H-tetrazol-1-yl)benzyl]-1-[(2R)-2-cyclopentyl-2-hydroxyacetyl]-4,5-dihydro-1H-pyrazole-5-carboxamide] displayed an IC50 of 24 nM.

The compound `O=C(NCc1cc(Cl)ccc1-n1cnnn1)[C@@H]1CC=NN1C(=O)C(O)c1ccc(F)cc1F` (stereo partly drawn) [Example 6, (5S)—N-[5-Chloro-2-(1H-tetrazol-1-yl)benzyl]-1-[(2,4-difluorophenyl)(hydroxy)acetyl]-4,5-dihydro-1H-pyrazole-5-carboxamide] yielded an IC50 of 35 nM.

For `O=C(NCc1cc(Cl)ccc1-n1cnnn1)[C@@H]1CC=NN1C(=O)C1(O)CCOc2ccccc21` (stereo partly shown) [Example 12], half-maximal inhibition (IC50) was put at 130 nM.

Consider `CC(C)(C)C[C@@H](N)C(=O)N1N=CC[C@H]1C(=O)NCc1cc(Cl)ccc1-n1cnnn1` [Example 18, (5S)—N-[5-Chloro-2-(1H-tetrazol-1-yl)benzyl]-1-(4-methyl-D-leucyl)-4,5-dihydro-1H-pyrazole-5-carboxamide], for which half-maximal inhibition (IC50) required 3.5 nM.

Take `O=C(NCc1cc(Cl)ccc1-n1cnnn1)[C@@H]1CC=NN1C(=O)[C@H](O)CC1CC1` [Example 19, (5S)—N-[5-Chloro-2-(1H-tetrazol-1-yl)benzyl]-1-[(2R)-3-cyclopropyl-2-hydroxypropanoyl]-4,5-dihydro-1H-pyrazole-5-carboxamide]: the midpoint of inhibition, the IC50, lay at 31 nM.

`CC(=O)O[C@@H](C(=O)N1N=CC[C@H]1C(=O)NCc1cc(Cl)ccc1-n1cnnn1)c1ccc(F)cc1` [Example 23, [(1R)-2-[(5S)-5-[[5-Chloro-2-(tetrazol-1-yl)phenyl]methylcarbamoyl]-4,5-dihydropyrazol-1-yl]-1-(4-fluorophenyl)-2-oxo-ethyl]acetate] came in with an IC50 of 193 nM.

As for `CC(C)CC(=O)O[C@@H](C(=O)N1N=CC[C@H]1C(=O)NCc1cc(Cl)ccc1-n1cnnn1)c1ccc(F)cc1` [Example 24, (1R)-2-[(5S)-5-{[5-Chloro-2-(1H-tetrazol-1-yl)benzyl]carbamoyl}-4,5-dihydro-1H-pyrazol-1-yl]-1-(4-fluorophenyl)-2-oxoethyl 3-methylbutanoate], 140 nM corresponded to half-maximal inhibition (IC50).

Turning to `CCCC(=O)O[C@@H](C(=O)N1N=CC[C@H]1C(=O)NCc1cc(Cl)ccc1-n1cnnn1)c1ccc(F)cc1` [Example 25, (1R)-2-[(5S)-5-{[5-Chloro-2-(1H-tetrazol-1-yl)benzyl]carbamoyl}-4,5-dihydro-1H-pyrazol-1-yl]-1-(4-fluorophenyl)-2-oxoethyl butanoate], 160 nM corresponded to half-maximal inhibition (IC50).

In turn, `CC(C)C(=O)O[C@@H](C(=O)N1N=CC[C@H]1C(=O)NCc1cc(Cl)ccc1-n1cnnn1)c1ccc(F)cc1` [Example 26, (1R)-2-[(5S)-5-{[5-Chloro-2-(1H-tetrazol-1-yl)benzyl]carbamoyl}-4,5-dihydro-1H-pyrazol-1-yl]-1-(4-fluorophenyl)-2-oxoethyl 2-methylpropanoate] came in with an IC50 of 150 nM.

Take `CCCCC(=O)O[C@@H](C(=O)N1N=CC[C@H]1C(=O)NCc1cc(Cl)ccc1-n1cnnn1)c1ccc(F)cc1` [Example 27, (1R)-2-[(5S)-5-{[5-Chloro-2-(1H-tetrazol-1-yl)benzyl]carbamoyl}-4,5-dihydro-1H-pyrazol-1-yl]-1-(4-fluorophenyl)-2-oxoethyl pentanoate]: inhibition was half-maximal at 140 nM (IC50).

The compound `O=C(O[C@@H](C(=O)N1N=CC[C@H]1C(=O)NCc1cc(Cl)ccc1-n1cnnn1)c1ccc(F)cc1)c1ccccc1` [Example 29, (1R)-2-[(5S)-5-{[5-Chloro-2-(1H-tetrazol-1-yl)benzyl]carbamoyl}-4,5-dihydro-1H-pyrazol-1-yl]-1-(4-fluorophenyl)-2-oxoethyl benzoate] gave an IC50 of 13 nM.

With `CCC(=O)Oc1cc(C)cc(C)c1C(C)(C)CC(=O)O[C@@H](C(=O)N1N=CC[C@H]1C(=O)NCc1cc(Cl)ccc1-n1cnnn1)c1ccc(F)cc1` [Example 30, (R)-2-((S)-5-(5-Chloro-2-(1H-tetrazol-1-yl)benzylcarbamoyl)-4,5-dihydro-1H-pyrazol-1-yl)-1-(4-fluorophenyl)-2-oxoethyl 3-(2,4-dimethyl-6-(propionyloxy)phenyl)-3-methylbutanoate], the IC50 turned out to be 660 nM.

Compound `O=C(NCc1cc(Cl)ccc1-n1cnnn1)[C@@H]1CCON1C(=O)[C@H](O)c1ccc(F)cc1` [Example 31, (3S)—N-[5-Chloro-2-(1H-tetrazol-1-yl)benzyl]-2-[(2R)-2-(4-fluorophenyl)-2-hydroxyacetyl]isoxazolidine-3-carboxamide] came in with an IC50 of 9.7 nM.

With `CC(C)(C)OC[C@@H](N)C(=O)N1OCC[C@H]1C(=O)NCc1cc(Cl)ccc1-n1cnnn1` [Example 32, (3S)-2-(O-tert-Butyl-D-seryl)-N-[5-chloro-2-(1H-tetrazol-1-yl)benzyl]isoxazolidine-3-carboxamide], the IC50 came to 170 nM.

For `O=C(NCc1cc(Cl)ccc1-n1cnnn1)[C@@H]1CCON1C(=O)C(O)c1ccc(F)cc1F` (stereo partly drawn) [Example 33, (3S)—N-[5-Chloro-2-(1H-tetrazol-1-yl)benzyl]-2-[(2,4-difluorophenyl)(hydroxy)acetyl]isoxazolidine-3-carboxamide], half-maximal inhibition (IC50) was put at 100 nM.

`O=C(NCc1cc(Cl)ccc1-n1cnnn1)[C@@H]1CCON1C(=O)C(O)c1cccc(F)c1F` (stereo partly drawn) [Example 34, (3S)—N-[5-Chloro-2-(1H-tetrazol-1-yl)benzyl]-2-[(2,3-difluorophenyl)(hydroxy)acetyl]isoxazolidine-3-carboxamide] gave an IC50 of 160 nM.

The compound `O=C(NCc1cc(Cl)ccc1-n1cnnn1)[C@@H]1CCON1C(=O)C(O)c1cc(F)cc(F)c1` (stereo partly drawn) [Example 35, (3S)—N-[5-Chloro-2-(1H-tetrazol-1-yl)benzyl]-2-[(3,5-difluorophenyl)(hydroxy)acetyl]isoxazolidine-3-carboxamide] displayed an IC50 of 70 nM.

`O=C(NCc1cc(Cl)ccc1-n1cnnn1)[C@@H]1CCON1C(=O)C(O)c1ccccc1F` (stereo partly drawn) [Example 36, (3S)—N-[5-Chloro-2-(1H-tetrazol-1-yl)benzyl]-2-[(2-fluorophenyl)(hydroxy)acetyl]isoxazolidine-3-carboxamide] registered an IC50 of 94 nM.

On to `Cc1cccc(C(O)C(=O)N2OCC[C@H]2C(=O)NCc2cc(Cl)ccc2-n2cnnn2)c1` (stereo partly drawn) [Example 37, (3S)—N-[5-Chloro-2-(1H-tetrazol-1-yl)benzyl]-2-[hydroxy(3-methylphenyl)acetyl]isoxazolidine-3-carboxamide], for which the IC50 was determined as 16 nM.

`CCCC[C@@H](O)C(=O)N1OCC[C@H]1C(=O)NCc1cc(Cl)ccc1-n1cnnn1` [Example 38, (3S)—N-[5-Chloro-2-(1H-tetrazol-1-yl)benzyl]-2-[(2R)-2-hydroxyhexanoyl]isoxazolidine-3-carboxamide] yielded an IC50 of 43 nM.
